The numbers were not newly measured in patent US12290525B2, “5 alpha dihydrotestosterone formulations and associated methods of use and treatment” (priority 2022, dated 2025), which cites them from elsewhere.

The target in data set [1] is estrogen receptor (ER) subtype ERβ (Homo sapiens, UniProt Q92731).
In data set [2] the test system is GABAA receptor.

Chain of estrogen receptor (ER) subtype ERβ (Q92731 whole entry): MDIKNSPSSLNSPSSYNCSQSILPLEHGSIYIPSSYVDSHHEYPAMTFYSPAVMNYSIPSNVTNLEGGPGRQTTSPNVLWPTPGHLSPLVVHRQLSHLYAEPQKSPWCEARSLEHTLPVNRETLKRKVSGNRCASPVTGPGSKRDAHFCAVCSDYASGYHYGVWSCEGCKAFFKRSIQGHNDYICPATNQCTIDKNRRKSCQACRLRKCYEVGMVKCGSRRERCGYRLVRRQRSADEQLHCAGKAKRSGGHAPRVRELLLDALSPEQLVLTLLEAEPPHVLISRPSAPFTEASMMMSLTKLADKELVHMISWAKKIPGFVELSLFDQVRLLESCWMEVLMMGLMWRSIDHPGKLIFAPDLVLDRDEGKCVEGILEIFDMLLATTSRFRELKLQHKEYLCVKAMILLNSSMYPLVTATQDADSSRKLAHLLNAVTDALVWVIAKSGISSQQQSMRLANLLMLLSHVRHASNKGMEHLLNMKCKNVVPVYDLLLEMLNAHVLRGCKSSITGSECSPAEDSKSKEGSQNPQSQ

Consider `C[C@]12CC[C@H](O)C[C@@H]1CC[C@@H]1[C@@H]2CC[C@]2(C)[C@@H](O)CC[C@@H]12` [3β-androstanediol], for which, in data set [1], the “activity at ERβ” value was “potent and selective agonist”. Regarding `C[C@]12CC[C@@H](O)C[C@@H]1CC[C@@H]1[C@@H]2CC[C@]2(C)[C@@H](O)CC[C@@H]12` [3α-Androstanediol, 3α-androstanediol], the “activity at the GABAA receptor” value in data set [2] is on record as “potent positive allosteric modulator”.
